In PubChem BioAssay AID2840 (Southern Research Specialized Biocontainment Screening …, 2010):
Calls of active or inactive are those of the source. How the calls were made is not given here.

Tests used:
[1] = Salmonella typhi GFP reporter counter screen, fluorescence, PhoP regulon inhibitors, confirmatory, 4 h (AID 2840); conditions: Salmonella typhi GFP reporter counter-screen, fluorescence, 4 h; at 150 µM (top of the series)
[2] = system: Salmonella typhi GFP reporter counter-screen, fluorescence, 4 h; experiment: as above

| Compound | inhibition [1] | IC50 [2] [nM] |
| --- | --- | --- |
| S=C(NCc1ccc(Cl)cc1)Nc1ccc(Br)cc1 | 1.55% (inactive) | – |
| S=C(NCc1ccc(Cl)cc1)Nc1cccnc1 | -15.5% (inactive) | – |
| O=C(Nc1ccccc1Cl)N1CCCN(Cc2ccccc2F)C1 | 0.77% (inactive) | – |
| O=C1c2ccccc2C2=Nc3ccccc3SC(c3ccccc3F)C12 (stereo unspecified) | – | < 150 |
| O=C1C2=C(Nc3ccccc3SC2c2cccc(Cl)c2)c2ccccc21 (stereo unspecified) | 14.9% (inactive) | – |
| O=C1C2=C(Nc3ccccc3SC2c2ccccc2Br)c2ccccc21 (stereo unspecified) | 9.22% (inactive) | – |
| O=C(Nc1nnc(-c2cccs2)o1)c1cccc(C(F)(F)F)c1 | – | < 150 |
| O=C(NCc1ccccc1)N1CCCN(Cc2ccccc2F)C1 | -5% (inactive) | – |
| O=[N+]([O-])c1ccc(CNC2CCCc3ccccc32)cc1 (stereo unspecified) | – | < 150 |
| O=C1C2=C(Nc3ccccc3SC2c2ccc(C(F)(F)F)cc2)c2ccccc21 (stereo unspecified) | – | 107000 |
| COc1ccc(CNC(=S)Nc2ccncc2)cc1 | 15.2% (inactive) | – |
| CCn1cc(C(=O)O)c(=O)c2cc(F)c(N3CCN(C(=S)NC(=O)c4ccccc4F)CC3)cc21 | – | < 150 |
| Cc1ccc(NC(=S)NCc2ccc(Cl)cc2)cc1 | 1.23% (inactive) | – |
| S=C(NCc1ccc(Cl)cc1)Nc1ccncc1 | – | < 150 |
| CCn1cc(C(=O)O)c(=O)c2cc(F)c(N3CCN(C(=S)Nc4ccccc4C(F)(F)F)CC3)cc21 | – | 104000 |
| COc1ccc(NC(=S)NCc2ccc(Cl)cc2)cc1 | 8.1% (inactive) | – |
| O=C(O)c1cn(-c2ccc(F)cc2)c2cc(Cl)c(F)cc2c1=O | – | < 150 |
| CN1CCc2nc(SCC(=O)Nc3cccc(F)c3)c(C#N)c(-c3cccs3)c2C1 | – | < 150 |
| C1=C(CCNc2ncnc3c2[nH]c2ccccc23)CCCC1 | – | < 150 |

| Compound | inhibition [1] | IC50 [2] [nM] |
| --- | --- | --- |
| CCn1cc(C(=O)O)c(=O)c2cc(F)c(N3CCN(C(=S)NC(=O)c4ccccc4Cl)CC3)cc21 | – | < 150 |
| O=C(Nc1cccnc1)c1cc(Br)c(Br)s1 | – | < 150 |
| O=C1C2=C(Nc3ccccc3SC2c2ccco2)c2ccccc21 (stereo unspecified) | – | < 150 |
| COc1ccccc1Nc1nc(NCc2ccco2)c2ccccc2n1 | – | < 150 |
| O=c1c2ccccc2[nH]c2ccc(F)cc12 | – | < 150 |
| CCCCCNC(=O)c1cn(CC)c2cc(N3CCN(C)CC3)c(F)cc2c1=O | – | < 150 |
| Cc1ccc(CN2CCCN(C(=O)Nc3ccc(Cl)cc3)C2)cc1 | – | 99800 |
| O=C1C2=C(Nc3ccccc3SC2c2ccsc2)c2ccccc21 (stereo unspecified) | 13.1% (inactive) | – |
| O=C(Nc1ccc(Cl)cc1)N1CCCN(Cc2ccccc2F)C1 | – | < 150 |
| CN1CCN(C2=Cc3cc(Cl)ccc3Sc3cc(F)ccc32)CC1 | – | < 150 |
| COc1ccc(NC(=O)c2cc(Br)c(Br)s2)cn1 | – | < 150 |
| CCn1cc(C(=O)O)c(=O)c2cc(F)c(N3CCN(C(=S)NCc4ccccc4)CC3)cc21 | 13.2% (inactive) | – |
| CCn1cc(C(=O)O)c(=O)c2cc(F)c(N3CCN(C(=S)Nc4ccccc4Cl)CC3)cc21 | 17.6% (inactive) | – |
| CCn1cc(C(=O)O)c(=O)c2cc(F)c(N3CCN(C(=S)NC)CC3)cc21 | -11.9% (inactive) | – |
| COc1ccccc1NC(=O)N1CCCN(Cc2ccccc2F)C1 | 21% (inactive) | – |
| CCn1cc(C(=O)O)c(=O)c2cc(F)c(N3CCN(C(=S)Nc4ccccc4C)CC3)cc21 | 22% (inactive) | – |
| N#C/C(=C\c1ccc[nH]1)C(=O)NC1CC1 | – | < 150 |
| Fc1ccccc1NC(=S)NCc1ccc(Cl)cc1 | 1.61% (inactive) | – |
| O=C1C2=C(Nc3ccccc3SC2c2ccccc2Cl)c2ccccc21 (stereo unspecified) | 24.5% (inactive) | – |

| Compound | inhibition [1] | IC50 [2] [nM] |
| --- | --- | --- |
| COc1cccc(C2Sc3ccccc3NC3=C2C(=O)c2ccccc23)c1 (stereo unspecified) | 14.1% (inactive) | – |
| CCCCn1c(NS(=O)(=O)c2ccccc2)c(S(=O)(=O)c2ccc(C)cc2)c2nc3ccccc3nc21 | – | < 150 |
| O=C1C2=C(Nc3ccccc3SC2c2ccc(I)cc2)c2ccccc21 (stereo unspecified) | 37.4% (inactive) | – |
| CCn1cc(C(=O)O)c(=O)c2cc(F)c(N3CCN(C(=S)Nc4ccc(Cl)cc4)CC3)cc21 | 39.1% (inactive) | – |
| CCCCn1c(NS(=O)(=O)c2ccc(C)cc2)c(S(=O)(=O)c2ccccc2)c2nc3ccccc3nc21 | – | < 150 |
| O=C1C2=C(Nc3ccccc3SC2c2ccccc2C(F)(F)F)c2ccccc21 (stereo unspecified) | 7.85% (inactive) | – |
| S=C(NCc1ccc(Cl)cc1)Nc1cccc(Cl)c1 | 21.5% (inactive) | – |
| S=C(NCc1ccc(Cl)cc1)Nc1ccc(Cl)cc1 | 0.06% (inactive) | – |
| O=C(Nc1ccccc1)N1CCCN(Cc2ccccc2F)C1 | 14.4% (inactive) | – |
| O=S(=O)(Nc1c(S(=O)(=O)c2ccccc2)c2nc3ccccc3nc2n1C1CCCCC1)c1ccccc1 | – | < 150 |
| S=C(NCc1ccccc1Cl)Nc1ccncc1 | 6.49% (inactive) | – |
| CN(C)CCCN(C(=O)CCc1ccccc1)c1nc2ccc(Cl)cc2s1 | – | < 150 |
| CSc1nc2cc(Oc3cccc(Cl)c3Cl)c(Cl)cc2[nH]1 | – | < 150 |
| COc1c(N2CCN(C(=S)NCc3ccccc3)C(C)C2)c(F)cc2c(=O)c(C(=O)O)cn(C3CC3)c12 (stereo unspecified) | – | < 150 |
| Cc1cccc(NC(=S)NCc2ccc(Cl)cc2)c1 | 3.06% (inactive) | – |
| CCOc1ccc(NC(=S)N2CCN(c3cc4c(cc3F)c(=O)c(C(=O)O)cn4CC)CC2)cc1 | 15.7% (inactive) | – |
| Cc1ccc(Nc2cc(C)c3c(O)cccc3n2)cc1C | – | < 150 |
| COc1cccc(NC(=S)NCc2ccc(Cl)cc2)c1 | 2.87% (inactive) | – |
